# Results: US9738634B2, “Heterocyclic amide compound and herbicide” (SYNGENTA PARTICIPATIONS AG, priority 2013, dated 2017)
# Key:
# Type in all cases: in vivo
# Conditions in all cases: treatment dosage 320 g/ha
# barnyard grass [1] = experiment: Test Example 1: weedkilling efficacy, preemergent weed treatment in the submerged state; A: barnyard grass
# In short: (§1)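 Visual scores against set criteria were taken 3 weeks after treatment. Compounds, as diluted emulsions at specified g/ha, went onto the water surface of 4 cm-flooded alluvial soil pots on the day weeds were sown and 2.5-leaf rice was transplanted; greenhouse held 25–30 °C.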
# bulrush [2] = experiment: Test Example 1: weedkilling efficacy, preemergent weed treatment in the submerged state; B: bulrush
# In short: as §1
# oval-leafed pondweed [3] = experiment: Test Example 1: weedkilling efficacy, preemergent weed treatment in the submerged state; C: oval-leafed pondweed
# In short: as §1
# transplanted rice = experiment: Test Example 1: preemergent weed treatment in the submerged state, effect on crop; a: transplanted rice
# In short: as §1
# barnyard grass [4] = experiment: Test Example 2: weedkilling efficacy, growth period weed treatment in the submerged state; A: barnyard grass
# In short: (§2)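 Barnyard grass, bulrush and oval-leafed pondweed sown in alluvial soil under 4 cm flooding, greenhouse 25 to 30° C. At 1-2 leaf stage, water-diluted emulsion applied to the water surface at stated g/ha dosages; effects scored 3 weeks later.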
# bulrush [5] = experiment: Test Example 2: weedkilling efficacy, growth period weed treatment in the submerged state; B: bulrush
# In short: as §2
# oval-leafed pondweed [6] = experiment: Test Example 2: weedkilling efficacy, growth period weed treatment in the submerged state; C: oval-leafed pondweed
# In short: as §2
# crabgrass [7] = experiment: Test Example 3: weedkilling efficacy through soil treatment; D: crabgrass
# In short: (§3)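 Crop and weed responses were judged three weeks after a uniform surface spray of the water-diluted emulsion at the given g/ha rate. Seeds sat beneath about 1.5 cm of sterilized diluvial soil, and boxes stood in a greenhouse at 25 to 30° C.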
# green foxtail [8] = experiment: Test Example 3: weedkilling efficacy through soil treatment; E: green foxtail
# In short: as §3
# barnyard grass [9] = experiment: Test Example 3: weedkilling efficacy through soil treatment; F: barnyard grass
# In short: as §3
# wild oat [10] = experiment: Test Example 3: weedkilling efficacy through soil treatment; G: wild oat
# In short: as §3
# black-grass [11] = experiment: Test Example 3: weedkilling efficacy through soil treatment; H: black-grass
# In short: as §3
# Italian ryegrass [12] = experiment: Test Example 3: weedkilling efficacy through soil treatment; I: Italian ryegrass
# In short: as §3
# common wind-grass [13] = experiment: Test Example 3: weedkilling efficacy through soil treatment; J: common wind-grass
# In short: as §3
# Indian mallow [14] = experiment: Test Example 3: weedkilling efficacy through soil treatment; K: Indian mallow
# In short: as §3
# redroot pigweed [15] = experiment: Test Example 3: weedkilling efficacy through soil treatment; L: redroot pigweed
# In short: as §3
# fig-leafed goosefoot = experiment: Test Example 3: weedkilling efficacy through soil treatment; M: fig-leafed goosefoot
# In short: as §3
# chickweed [16] = experiment: Test Example 3: weedkilling efficacy through soil treatment; N: chickweed
# In short: as §3
# catchweed [17] = experiment: Test Example 3: weedkilling efficacy through soil treatment; O: catchweed
# In short: as §3
# birds-eye speedwell [18] = experiment: Test Example 3: weedkilling efficacy through soil treatment; p: birds-eye speedwell
# In short: as §3
# directly sown rice [19] = experiment: Test Example 3: soil treatment, effect on crop; b: directly sown rice
# In short: as §3
# corn [20] = experiment: Test Example 3: soil treatment, effect on crop; c: corn
# In short: as §3
# soybean [21] = experiment: Test Example 3: soil treatment, effect on crop; d: soybean
# In short: as §3
# wheat [22] = experiment: Test Example 3: soil treatment, effect on crop; e: wheat
# In short: as §3
# beet [23] = experiment: Test Example 3: soil treatment, effect on crop; f: beet
# In short: as §3
# rapeseed [24] = experiment: Test Example 3: soil treatment, effect on crop; g: rapeseed
# In short: as §3
# crabgrass [25] = experiment: Test Example 4: weedkilling efficacy by foliar treatment; D: crabgrass
# In short: (§4)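 Seeds are spot-sown into sterilized diluvial soil and covered with about 1.5 cm of soil. After 14 days' greenhouse growth at 25 to 30° C, plants are sprayed on stems and leaves with diluted emulsion at the stated g/ha rate, then scored at 3 weeks.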
# green foxtail [26] = experiment: Test Example 4: weedkilling efficacy by foliar treatment; E: green foxtail
# In short: as §4
# barnyard grass [27] = experiment: Test Example 4: weedkilling efficacy by foliar treatment; F: barnyard grass
# In short: as §4
# wild oat [28] = experiment: Test Example 4: weedkilling efficacy by foliar treatment; G: wild oat
# In short: as §4
# black-grass [29] = experiment: Test Example 4: weedkilling efficacy by foliar treatment; H: black-grass
# In short: as §4
# Italian ryegrass [30] = experiment: Test Example 4: weedkilling efficacy by foliar treatment; I: Italian ryegrass
# In short: as §4
# common wind-grass [31] = experiment: Test Example 4: weedkilling efficacy by foliar treatment; J: common wind-grass
# In short: as §4
# Indian mallow [32] = experiment: Test Example 4: weedkilling efficacy by foliar treatment; K: Indian mallow
# In short: as §4
# redroot pigweed [33] = experiment: Test Example 4: weedkilling efficacy by foliar treatment; L: redroot pigweed
# In short: as §4
# chickweed [34] = experiment: Test Example 4: weedkilling efficacy by foliar treatment; N: chickweed
# In short: as §4
# catchweed [35] = experiment: Test Example 4: weedkilling efficacy by foliar treatment; O: catchweed
# In short: as §4
# birds-eye speedwell [36] = experiment: Test Example 4: weedkilling efficacy by foliar treatment; p: birds-eye speedwell
# In short: as §4
# directly sown rice [37] = experiment: Test Example 4: foliar treatment, effect on crop; b: directly sown rice
# In short: as §4
# corn [38] = experiment: Test Example 4: foliar treatment, effect on crop; c: corn
# In short: as §4
# soybean [39] = experiment: Test Example 4: foliar treatment, effect on crop; d: soybean
# In short: as §4
# wheat [40] = experiment: Test Example 4: foliar treatment, effect on crop; e: wheat
# In short: as §4
# beet [41] = experiment: Test Example 4: foliar treatment, effect on crop; f: beet
# In short: as §4
# rapeseed [42] = experiment: Test Example 4: foliar treatment, effect on crop; g: rapeseed
# In short: as §4
smiles,measurement,setting,value
COc1cc(Cl)nc(NC(=O)C(C)(C)N2COC(C)=C(c3ccccc3)C2=O)c1 [B-2-47],A (barnyard grass) weedkilling efficacy grade,barnyard grass [1],"5 (weed kill ratio 90% or more, (practically complete withering))"
same,B (bulrush) weedkilling efficacy grade,bulrush [2],"5 (weed kill ratio 90% or more, (practically complete withering))"
same,C (oval-leafed pondweed) weedkilling efficacy grade,oval-leafed pondweed [3],"5 (weed kill ratio 90% or more, (practically complete withering))"
same,a (transplanted rice) effect on crop grade,transplanted rice,"1 (weed kill ratio 5% or more, less than 20%)"
same,A (barnyard grass) weedkilling efficacy grade,barnyard grass [4],"5 (weed kill ratio 90% or more, (practically complete withering))"
same,B (bulrush) weedkilling efficacy grade,bulrush [5],"5 (weed kill ratio 90% or more, (practically complete withering))"
same,C (oval-leafed pondweed) weedkilling efficacy grade,oval-leafed pondweed [6],"5 (weed kill ratio 90% or more, (practically complete withering))"
same,D (crabgrass) weedkilling efficacy grade,crabgrass [7],"4 (weed kill ratio 70% or more, less than 90%)"
same,E (green foxtail) weedkilling efficacy grade,green foxtail [8],"5 (weed kill ratio 90% or more, (practically complete withering))"
same,F (barnyard grass) weedkilling efficacy grade,barnyard grass [9],"4 (weed kill ratio 70% or more, less than 90%)"
same,G (wild oat) weedkilling efficacy grade,wild oat [10],"2 (weed kill ratio 20% or more, less than 40%)"
same,H (black-grass) weedkilling efficacy grade,black-grass [11],"5 (weed kill ratio 90% or more, (practically complete withering))"
same,I (Italian ryegrass) weedkilling efficacy grade,Italian ryegrass [12],"5 (weed kill ratio 90% or more, (practically complete withering))"
same,J (common wind-grass) weedkilling efficacy grade,common wind-grass [13],"5 (weed kill ratio 90% or more, (practically complete withering))"
same,K (Indian mallow) weedkilling efficacy grade,Indian mallow [14],0 (weed kill ratio 5% or less (practically no effect))
same,L (redroot pigweed) weedkilling efficacy grade,redroot pigweed [15],0 (weed kill ratio 5% or less (practically no effect))
same,M (fig-leafed goosefoot) weedkilling efficacy grade,fig-leafed goosefoot,"2 (weed kill ratio 20% or more, less than 40%)"
same,N (chickweed) weedkilling efficacy grade,chickweed [16],"3 (weed kill ratio 40% or more, less than 70%)"
same,O (catchweed) weedkilling efficacy grade,catchweed [17],"4 (weed kill ratio 70% or more, less than 90%)"
same,P (birds-eye speedwell) weedkilling efficacy grade,birds-eye speedwell [18],"5 (weed kill ratio 90% or more, (practically complete withering))"
same,b (directly sown rice) effect on crop grade,directly sown rice [19],"3 (weed kill ratio 40% or more, less than 70%)"
same,c (corn) effect on crop grade,corn [20],0 (weed kill ratio 5% or less (practically no effect))
same,d (soybean) effect on crop grade,soybean [21],0 (weed kill ratio 5% or less (practically no effect))
same,e (wheat) effect on crop grade,wheat [22],0 (weed kill ratio 5% or less (practically no effect))
same,f (beet) effect on crop grade,beet [23],"2 (weed kill ratio 20% or more, less than 40%)"
same,g (rapeseed) effect on crop grade,rapeseed [24],"3 (weed kill ratio 40% or more, less than 70%)"
same,D (crabgrass) weedkilling efficacy grade,crabgrass [25],"3 (weed kill ratio 40% or more, less than 70%)"
same,E (green foxtail) weedkilling efficacy grade,green foxtail [26],"4 (weed kill ratio 70% or more, less than 90%)"
same,F (barnyard grass) weedkilling efficacy grade,barnyard grass [27],"1 (weed kill ratio 5% or more, less than 20%)"
same,G (wild oat) weedkilling efficacy grade,wild oat [28],"2 (weed kill ratio 20% or more, less than 40%)"
same,H (black-grass) weedkilling efficacy grade,black-grass [29],"2 (weed kill ratio 20% or more, less than 40%)"
same,I (Italian ryegrass) weedkilling efficacy grade,Italian ryegrass [30],"2 (weed kill ratio 20% or more, less than 40%)"
same,J (common wind-grass) weedkilling efficacy grade,common wind-grass [31],"4 (weed kill ratio 70% or more, less than 90%)"
same,K (Indian mallow) weedkilling efficacy grade,Indian mallow [32],0 (weed kill ratio 5% or less (practically no effect))
same,L (redroot pigweed) weedkilling efficacy grade,redroot pigweed [33],0 (weed kill ratio 5% or less (practically no effect))
same,N (chickweed) weedkilling efficacy grade,chickweed [34],"2 (weed kill ratio 20% or more, less than 40%)"
same,O (catchweed) weedkilling efficacy grade,catchweed [35],"3 (weed kill ratio 40% or more, less than 70%)"
same,P (birds-eye speedwell) weedkilling efficacy grade,birds-eye speedwell [36],"4 (weed kill ratio 70% or more, less than 90%)"
same,b (directly sown rice) effect on crop grade,directly sown rice [37],0 (weed kill ratio 5% or less (practically no effect))
same,c (corn) effect on crop grade,corn [38],0 (weed kill ratio 5% or less (practically no effect))
same,d (soybean) effect on crop grade,soybean [39],0 (weed kill ratio 5% or less (practically no effect))
same,e (wheat) effect on crop grade,wheat [40],0 (weed kill ratio 5% or less (practically no effect))
same,f (beet) effect on crop grade,beet [41],"3 (weed kill ratio 40% or more, less than 70%)"
same,g (rapeseed) effect on crop grade,rapeseed [42],"3 (weed kill ratio 40% or more, less than 70%)"
